Results published in patent US12297240B2, “Peptide” (Kyoto University, priority 2015, dated 2025).

Experiments:
ddY mice [1] = assay: Open field test; assay type: in vivo
Method: Similar to the case of the elevated plus-maze test, the higher the percentage of exploratory behaviors of a mouse in the center portion of a circle, the less anxious the mouse feels. Thus, the anxiolytic activity is determined based on this index.
Each mouse was placed in an open field 30 minutes after the administration, and the test was started. The percentage of exploratory behaviors in the center portion of the circle (the time spent in the center circle (open field) (Time in 12 cm circle) and the percentage of the number of visits to the center circle (Visits in 12 cm circle)) during the 5-minute test time were evaluated.

ddY mice [2] = assay: Tail suspension test; assay type: in vivo
Method: (§1) The test was carried out (0 minutes) 30 minutes after administration of a test substance, and the immobility time during the period from 0 to 6 minutes was measured (FIG. 2).
(§2) When an antidepressant drug, such as imipramine, is administered, the immobility time is reduced. Thus, when a reduction in the immobility time is observed, it can be evaluated that the test substance has an antidepressant-like effect. Immobility is considered a despair state; therefore, a reduction in the immobility time also serves as an index for improvement of a despair state, i.e., enhancement of motivation.

[3] = tested on: serotonin 5-HT1A, dopamine D1, and GABAA receptors; assay: Tail suspension test in combination with receptor antagonists (mechanism of action); assay type: in vivo, mice; settings: 0.3 mg/kg p.o. with WAY100135 10 mg/kg, SCH23390 30 μg/kg or bicuculline 30 mg/kg (Example 8, FIG. 11)
Method: as §1
(§3) The tail suspension test was performed using mice to which 30 mg/kg of the thermolysin digest of β-CG was orally administered (p.o.) in combination with each of the antagonists of various receptors. Three kinds of antagonists, i.e., WAY100135, which is an antagonist of the serotonin 5-HT1A receptor (dose: 10 mg/kg), SCH23390, which is an antagonist of the dopamine D1 receptor (dose: 30 μg/kg), and bicuculline, which is an antagonist of the GABA-A receptor (dose: 30 mg/kg), were used.
as §3, with “which 0.3” for “which 30”, “the peptide LSSTQAQQSY (SEQ ID NO: 1)” for “the thermolysin digest of β-CG”

ddY mice [4] = assay: Elevated plus-maze test (EPM); assay type: in vivo
Description: The elevated plus-maze includes two open arms (25×5 cm) and two closed arms (25×5×15 cm), which are joined to a central platform 50 cm high above the floor (see FIG. 3A). Because the closed arms are surrounded by walls, a mouse can safely walk in the closed arms in spite of the elevated position. On the other hand, because the open arms are not surrounded by walls, a mouse walking along the open arms feels anxious that it may fall from the elevated position. Thus, the more time the mouse spends in the open arms, or the greater the number of entries into the open arms, the less anxious the mouse feels. Thus, the anxiolytic activity is determined based on these indices.
Each mouse was placed on a portion of the central platform facing one of the open arms 30 minutes after the administration, and the test was started. During the 5-minute test time, the cumulative time spent in the open arms (time in open arms), the number of visits to the open arms (visit to open arms), and the total number of visits to any of the arms (total visits) were recorded. The percentage of time spent in the open arms and the percentage of the number of visits to the open arms were calculated as indices of anxiety.

ddY mice [5] = assay: Forced swim test; assay type: in vivo; settings: 1 mg/kg or more orally; doses tested 0.3, 1 mg/kg (Example 5, FIG. 8)
Method: The test was carried out (0 minutes) 30 minutes after administration of a test substance, and the immobility time during the period from 0 to 8 minutes was measured (FIG. 2).
as §2, with “As in the tail suspension test, when” for “When”

LSSTQAQQSY (Designed peptide) [10-residue peptide from thermolysin digest of soybean β-conglycinin; synthesized by a standard method]
number of visits to the center circle (open field) (ddY mice [1]; 1 mg/kg orally (Example 11, FIG. 15)): significantly increased | time spent in the center circle (open field) (ddY mice [1]; 1 mg/kg orally, doses tested 0.1, 0.3, 1 mg/kg (Example 11, FIG. 15)): significantly increased | amount of activities (ddY mice [1]; 0.1, 0.3 or 1 mg/kg (Example 11, FIG. 15)): no significant difference | immobility time (ddY mice [2]; 0.3 mg/kg or more orally, doses tested 0.1, 0.3, 1, 3 mg/kg (Example 4, FIG. 7)): significantly reduced | immobility time (ddY mice [2]; 0.3 mg/kg orally, C-terminal variants (Example 12, FIG. 16)): strongest immobility time reducing effect | immobility time (ddY mice [2]; 0.3 mg/kg orally, structure-activity relationships (Example 6, FIG. 9)): strongest immobility time reducing effect | reduction in the immobility time in combination with antagonists [3]: significantly suppressed | percentage of time spent in the open arms (ddY mice [4]; 1 mg/kg orally, doses tested 0.1, 0.3, 1 mg/kg (Example 10, FIG. 14)): significantly increased | total number of entries (amount of activities) (ddY mice [4]; 0.1, 0.3 or 1 mg/kg (Example 10, FIG. 14)): no significant difference | immobility time (ddY mice [5]): significantly reduced
